Measurements: PMC3194046 (European journal of pharmacology, 2009)

Tests used:
[1] = target: T1, sigma2 receptor (Rattus norvegicus, UniProt Q5U3Y7); assay: Sigma2 receptor binding with [3H]-DTG on rat liver membranes, 100 nM; settings: 100 nM (+)-pentazocine
T1 sequence (Q5U3Y7 1-176): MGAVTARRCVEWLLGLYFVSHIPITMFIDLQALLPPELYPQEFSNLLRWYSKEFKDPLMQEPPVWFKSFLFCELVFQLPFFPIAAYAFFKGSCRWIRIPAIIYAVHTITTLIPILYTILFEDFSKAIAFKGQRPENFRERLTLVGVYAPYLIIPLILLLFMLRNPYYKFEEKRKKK

[2] = target: T2, purified guinea pig sigma1 receptor (Cavia porcellus, UniProt Q60492); assay: Competition binding of [3H]-; settings: for inhibition of [3H]-(+)-pentazocine binding to the sigma1 receptor: Fig. 2A, 2B
T2 sequence (Q60492 whole entry): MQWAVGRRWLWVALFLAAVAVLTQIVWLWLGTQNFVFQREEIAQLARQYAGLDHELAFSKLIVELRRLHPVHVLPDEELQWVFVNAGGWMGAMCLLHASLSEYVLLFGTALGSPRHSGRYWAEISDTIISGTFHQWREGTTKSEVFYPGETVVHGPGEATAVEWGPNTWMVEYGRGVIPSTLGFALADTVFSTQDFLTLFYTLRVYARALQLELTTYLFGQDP

[3] = target: pure sigma1 receptor (Cavia porcellus, UniProt Q60492); settings: for inhibition of [125I]Iodoazidococaine photolabeling: 10 µM compound, 1 nM photoprobe; for relative inhibition of [125I]-Iodoazidococaine photolabeling: compounds at 0.1 µM, 1 µM and 10 µM
Chain of pure sigma1 receptor (Q60492 whole entry): as above

[4] = tested on: dopamine (D2) receptor; settings: ref Kumagai et al., 2000; cited from earlier work
[5] = target: T3, sigma1 receptor in guinea pig liver membranes (Cavia porcellus, UniProt Q60492); assay: Saturation equilibrium binding of [3H]-; settings: saturation binding and Scatchard transformation
T3 sequence (Q60492 whole entry): as above

[6] = target: T4, sigma1 receptor (Cavia porcellus, UniProt Q60492); assay: Inhibition of [3H]-; assay type: binding
T4 sequence (Q60492 whole entry): as above

[7] = target: T3, sigma1 receptor in guinea pig liver membranes; assay: Competition binding of [3H]-
[8] = target: T4, sigma1 receptor; assay: Inhibition of [3H]-; assay type: binding; settings: HEK-293 homogenates S1,SK1; 2 mM ATP, 5 mM MgCl2; concentrations as high as 100 µM
[9] = target: T2, purified guinea pig sigma1 receptor; settings: ref Moebius et al., 1997; Ramachandran et al., 2007; cited from earlier work
[10] = target: T3, sigma1 receptor in guinea pig liver membranes; settings: ref Moebius et al., 1997; Ramachandran et al., 2007; cited from earlier work

Compound	affinity for the sigma2 receptor [1]	inhibition of [3H]-(+)-pentazocine binding to the sigma1 receptor [2]	inhibition of [125I]Iodoazidococaine photolabeling [3]	relative inhibition of [125I]-Iodoazidococaine photolabeling [3]	further results
CCCCCCCCCCCCCCC[C@@H](O)[C@@H](N)CO [sphinganine]	much lower binding affinity	–	–	–	–
CCCCCCCCCCCCC/C=C/[C@@H](O)[C@@H](N)COP(=O)(O)O [sphingosine-1 phosphate]	did not bind	failed to do so	did not show significant inhibition	not as effective	–
CCCCCCC[C@@H]1CC[C@@H](CCCC)N1 [(2R-trans)-2-Butyl-5-heptylpyrrolidine]	–	–	–	–	affinity for the dopamine (D2) receptor [4]: high affinity
CCCCCCCCCCCCC/C=C/[C@H](O)[C@@H](N)CO [L-threo-sphingosine]	–	–	–	–	fold more potent at the pure sigma1 receptor than the naturally occurring isomer ([2]; L-threo compared to naturally occurring isomer): approximately 10 fold
CCCCCCCCCCCCC/C=C/[C@@H](O)[C@@H](N)CO [D-erythro-sphingosine]	much lower binding affinity	–	inhibition of photolabeling	–	mode of inhibition of [3H]-(+)-pentazocine binding [5]: simple competitive interaction; Ki [6]: 3600 ± 600 nM; Ki [7]: 13000 ± 3100 nM; inhibition of [3H]-(+)-pentazocine binding [8]: did not show a significant inhibition; Ki [2]: 140 ± 20 nM
CCCCCCCCCCCCCN1CC(C)OC(C)C1 (stereo not drawn) [tridemorph]	–	–	–	–	affinity on the pure sigma1 receptor [9]: high affinity; affinity for the sigma1 receptor in guinea pig liver membranes [10]: high affinity
CCCCCCCCCCCCC/C=C/[C@@H](O)[C@H](CO)N(C)C [N, N dimethyl sphingosine]	much lower binding affinity	–	inhibition of photolabeling	marginally better than D-erythro sphingosine	–
CCCCCCCCCCCCN [dodecylamine]	–	–	–	–	Ki [2]: 183 ± 17 nM
ceramide-1 phosphate	–	failed to inhibit	–	not as effective	–
ceramide	–	failed to inhibit	–	not as effective	–
